Biological target: [Pyruvate dehydrogenase (acetyl-transferring)] kinase isozyme 1, mitochondrial (Homo sapiens, UniProt Q15118)
Test: Binding affinity to pyruvate dehydrogenase kinase 1 (unknown origin) incubated for 90 mins by VER-00160364 probe based fluorescence polarization assay

Sequence of [Pyruvate dehydrogenase (acetyl-transferring)] kinase isozyme 1, mitochondrial (Q15118 whole entry): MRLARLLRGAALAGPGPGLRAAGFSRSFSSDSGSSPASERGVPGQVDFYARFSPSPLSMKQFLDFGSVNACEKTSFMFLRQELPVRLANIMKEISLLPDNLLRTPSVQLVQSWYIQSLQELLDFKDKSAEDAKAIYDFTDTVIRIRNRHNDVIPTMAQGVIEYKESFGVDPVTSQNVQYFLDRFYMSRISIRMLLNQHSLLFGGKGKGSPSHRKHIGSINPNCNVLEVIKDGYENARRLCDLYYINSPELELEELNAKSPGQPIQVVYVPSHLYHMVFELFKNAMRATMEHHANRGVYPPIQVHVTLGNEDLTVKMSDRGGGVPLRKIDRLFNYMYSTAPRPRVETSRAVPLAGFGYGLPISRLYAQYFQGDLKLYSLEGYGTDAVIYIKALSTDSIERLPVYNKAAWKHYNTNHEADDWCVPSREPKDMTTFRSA

Compound	IC50
CSc1nc(-c2ccc(N(Cc3ccccc3)C(=O)c3ccc(O)cc3O)cc2)c2cc[nH]c2n1	1000 nM
Cc1cc(S(=O)(=O)N2CCCCC2)cnc1-c1ccc(N(Cc2ccsc2)C(=O)c2ccc(O)cc2O)cc1	10 nM
CN(Cc1ccc2ncccc2c1)C(=O)c1ccc(N(Cc2ccccc2)C(=O)c2ccc(O)cc2O)cc1	100 nM
Cc1cnc(C)c(-c2ccc(N(Cc3ccccc3)C(=O)c3ccc(O)cc3O)cc2)n1	100 nM
Cc1cc(S(=O)(=O)NCc2ccccn2)cnc1-c1ccc(N(Cc2ccccc2)C(=O)c2ccc(O)cc2O)cc1	10 nM
O=C(c1ccc(O)cc1O)N(Cc1ccccc1)c1ccc(-c2ccc(N3CCCC3)nn2)cc1	1000 nM
O=C(c1ccc(O)cc1O)N(Cc1ccsc1)c1ccc(-c2ccncc2C(F)(F)F)cc1	1000 nM
CC(=O)Nc1ccc(N(Cc2ccccc2)C(=O)c2ccc(O)cc2O)cc1	1000 nM
Cc1ccc(CN(C(=O)c2ccc(O)cc2O)c2ccc(-c3nc4ccccc4cc3C)cc2)cc1	10 nM
CN(Cc1cccc2ncccc12)C(=O)c1ccc(N(Cc2ccccc2)C(=O)c2ccc(O)cc2O)cc1	100 nM
CN(Cc1cccs1)C(=O)c1ccc(N(Cc2ccccc2)C(=O)c2ccc(O)cc2O)cc1	100 nM
CN(Cc1ccc(OC(F)(F)F)cc1)C(=O)c1ccc(N(Cc2cccnc2)C(=O)c2ccc(O)cc2O)cc1	100 nM
O=C(c1ccc(O)cc1O)N(Cc1ccsc1)c1ccc(-c2ncnc3ccc(Cl)cc23)cc1	1000 nM
CN(Cc1cccc2ncccc12)C(=O)c1ccc(N(Cc2ccsc2)C(=O)c2ccc(O)cc2O)cc1	100 nM
CNc1nccc(-c2ccc(N(Cc3cccnc3)C(=O)c3ccc(O)cc3O)cc2)n1	100 nM
CN(Cc1ccc2ccccc2c1)C(=O)c1ccc(N(Cc2ccccc2)C(=O)c2ccc(O)cc2O)cc1	10000 nM
Cc1cc(S(=O)(=O)NCc2cccs2)cnc1-c1ccc(N(Cc2ccccc2)C(=O)c2ccc(O)cc2O)cc1	10 nM
Cc1c(Cl)ncc2cc(-c3ccc(N(Cc4cccnc4)C(=O)c4ccc(O)cc4O)cc3)ccc12	1000 nM
Cc1cnc(C#N)nc1-c1ccc(N(Cc2ccccc2)C(=O)c2ccc(O)cc2O)cc1	100 nM
Cc1cc2ccccc2nc1-c1ccc(N(Cc2cccc(F)c2)C(=O)c2ccc(O)cc2O)cc1	10 nM
O=C(c1ccc(O)cc1O)N(Cc1cccnc1)c1ccc(-c2nc3ccccc3o2)cc1	1000 nM
CCNCc1ccc(CN(C(=O)c2ccc(O)cc2O)c2ccc(-c3nc4ccccc4cc3C)cc2)cc1	100 nM
O=C(c1ccc(O)cc1O)N(Cc1ccsc1)c1ccc(-c2nc3ccccc3cc2CO)cc1	100 nM

Compound	IC50
Cc1nccn1-c1ccc(-c2ccc(N(Cc3ccccc3)C(=O)c3ccc(O)cc3O)cc2)nn1	10 nM
O=C(c1ccc(O)cc1O)N(Cc1cccnc1)c1ccc(-c2nc3cc(Cl)ccc3o2)cc1	1000 nM
CN(C)C(=O)c1ccc(N(Cc2cccnc2)C(=O)c2cc(Cl)c(O)cc2O)cc1	10 nM
Cc1nc(N)ccc1-c1ccc(N(Cc2ccccc2)C(=O)c2ccc(O)cc2O)cc1	1000 nM
C[C@@H](c1ccccc1)N(C(=O)c1cc(Cl)c(O)cc1O)c1ccc(C(=O)N(C)C)cc1	1000 nM
CCc1cc2ccccc2nc1-c1ccc(N(Cc2ccsc2)C(=O)c2ccc(O)cc2O)cc1	1000 nM
CCCc1cncnc1-c1ccc(N(Cc2cccnc2)C(=O)c2ccc(O)cc2O)cc1	100 nM
CSc1nc(-c2ccc(N(Cc3ccsc3)C(=O)c3ccc(O)cc3O)cc2)c2cc[nH]c2n1	1000 nM
N#Cc1cc(Cl)nc(-c2ccc(N(Cc3cccnc3)C(=O)c3ccc(O)cc3O)cc2)c1	100 nM
CN(C)C(=O)c1ccc(N(CC2CCNCC2)C(=O)c2cc(Cl)c(O)cc2O)cc1	100 nM
Cc1cc2ccccc2nc1-c1ccc(N(Cc2ccc(Cl)cc2)C(=O)c2ccc(O)cc2O)cc1	1000 nM
CCOc1ccc2nc(-c3ccc(N(Cc4cccnc4)C(=O)c4ccc(O)cc4O)cc3)c(C)cc2c1	100 nM
O=C(c1ccc(O)cc1O)N(Cc1cccnc1)c1ccc(-c2ccncc2C(F)(F)F)cc1	100 nM
CCOC(=O)c1nc(C)nc(-c2ccc(N(Cc3ccccc3)C(=O)c3ccc(O)cc3O)cc2)c1C	10000 nM
Cc1cc(Cl)nnc1-c1ccc(N(Cc2cccnc2)C(=O)c2ccc(O)cc2O)cc1	10 nM
O=C(c1ccc(O)cc1O)N(Cc1cccnc1)c1ccc(-c2ccnc3ccsc23)cc1	100 nM
Cc1nc(C(F)(F)F)nc(-c2ccc(N(Cc3ccsc3)C(=O)c3ccc(O)cc3O)cc2)c1C	100 nM
COc1cc(-c2ccc(N(Cc3ccsc3)C(=O)c3ccc(O)cc3O)cc2)cnc1OC	10000 nM
COc1ccc(-c2ccc(N(Cc3cccnc3)C(=O)c3ccc(O)cc3O)cc2)c(OC)c1	1000 nM
O=C(c1ccc(O)cc1O)N(Cc1ccccc1)c1ccc(-c2ccccc2Cl)cc1	10 nM
COCCN(C)S(=O)(=O)c1cnc(-c2ccc(N(Cc3ccccc3)C(=O)c3ccc(O)cc3O)cc2)c(C)c1	100 nM
O=C(c1ccc(O)cc1O)N(Cc1cccnc1)c1ccc(-c2nc(Cl)nc3c2COCC3)cc1	100 nM
Nc1ccc(-c2ccc(N(Cc3cccnc3)C(=O)c3ccc(O)cc3O)cc2)nn1	1000 nM

Compound	IC50
Nc1ccc(-c2ccc(N(Cc3ccccc3)C(=O)c3ccc(O)cc3O)cc2)nn1	100 nM
CN(Cc1ccc2c(ccn2C)c1)C(=O)c1ccc(N(Cc2ccsc2)C(=O)c2ccc(O)cc2O)cc1	1000 nM
CC(=O)NCCNS(=O)(=O)c1cnc(-c2ccc(N(Cc3ccccc3)C(=O)c3ccc(O)cc3O)cc2)c(C)c1	10 nM
Cc1cc(S(=O)(=O)N2CC(F)(F)C2)cnc1-c1ccc(N(Cc2cccnc2)C(=O)c2ccc(O)cc2O)cc1	10 nM
CC(=O)NCCNS(=O)(=O)c1cnc(-c2ccc(N(Cc3cccnc3)C(=O)c3ccc(O)cc3O)cc2)c(C)c1	10 nM
COc1cc2cc(Cl)ccc2nc1-c1ccc(N(Cc2ccsc2)C(=O)c2ccc(O)cc2O)cc1	100 nM
Cc1cn(-c2ccc(-c3ccc(N(Cc4ccccc4)C(=O)c4ccc(O)cc4O)cc3)nn2)cn1	1000 nM
COc1cnc(Cl)nc1-c1ccc(N(Cc2ccccc2)C(=O)c2cc(C)c(O)cc2O)cc1	1000 nM
COc1ccc(CN(C)C(=O)c2ccc(N(Cc3ccsc3)C(=O)c3cc(C)c(O)cc3O)cc2)cc1	10 nM
Cn1ccnc1-c1ccc(N(Cc2ccccc2)C(=O)c2ccc(O)cc2O)cc1	1000 nM
CN(C)C(=O)c1ccc(N(Cc2c[nH]cn2)C(=O)c2cc(Cl)c(O)cc2O)cc1	1000 nM
O=C(c1ccc(O)cc1O)N(Cc1ccsc1)c1ccc(-c2nc(Cl)nc3c2COCC3)cc1	100 nM
O=C(c1ccc(O)cc1O)N(Cc1cccnc1)c1ccc(-c2cc3cncnc3[nH]2)cc1	1000 nM
COc1ccc2nc(-c3ccc(N(Cc4ccccc4)C(=O)c4ccc(O)cc4O)cc3)c(C)cc2c1	100 nM
Cc1cc(S(=O)(=O)NCCCC(N)=O)cnc1-c1ccc(N(Cc2cccnc2)C(=O)c2ccc(O)cc2O)cc1	10 nM
COc1ccc(CN(C)C(=O)c2ccc(N(Cc3cccnc3)C(=O)c3cc(Cl)c(O)cc3O)cc2)cc1	10 nM
Cc1cc(S(=O)(=O)N2CCN(C)CC2)cnc1-c1ccc(N(Cc2ccsc2)C(=O)c2ccc(O)cc2O)cc1	10 nM
CN(Cc1cccs1)C(=O)c1ccc(N(Cc2cccnc2)C(=O)c2ccc(O)cc2O)cc1	100 nM
COc1ccc(CNC(=O)c2ccc(N(Cc3cccnc3)C(=O)c3ccc(O)cc3O)cc2)cc1	100 nM
CC(=O)N1CCN(S(=O)(=O)c2cnc(-c3ccc(N(Cc4cccnc4)C(=O)c4ccc(O)cc4O)cc3)c(C)c2)CC1	10 nM
O=C(c1ccc(O)cc1O)N(Cc1cccnc1)c1ccc(-c2nc(-c3ccccc3)nc3ccccc23)cc1	1000 nM
O=C(c1ccc(O)cc1O)N(Cc1ccccc1)c1ccc(-c2nc3ccccc3cc2CO)cc1	10000 nM
CC(=O)N1CCN(S(=O)(=O)c2cnc(-c3ccc(N(Cc4ccccc4)C(=O)c4ccc(O)cc4O)cc3)c(C)c2)CC1	10 nM

Compound	IC50
CNC(=O)c1ccc(N(Cc2cccnc2)C(=O)c2ccc(O)cc2O)cc1	1000 nM
NC(=O)c1nc(-c2ccc(N(Cc3ccccc3)C(=O)c3ccc(O)cc3O)cc2)c2ccccc2n1	10000 nM
Cc1cc(S(=O)(=O)NCc2cccnc2)cnc1-c1ccc(N(Cc2ccccc2)C(=O)c2ccc(O)cc2O)cc1	10 nM
O=C(c1ccc(O)cc1O)N(Cc1cccnc1)c1ccc(-c2nc3ccccc3nc2C(F)(F)F)cc1	100 nM
O=C(c1ccc(O)cc1O)N(Cc1ccccc1)c1ccc(-c2nc(Cl)nn3cccc23)cc1	1000 nM
COc1ccc(CN(C)C(=O)c2ccc(N(Cc3ccccc3)C(=O)c3ccc(O)cc3O)cc2)cc1	100 nM
Cc1cc(Cl)nnc1-c1ccc(N(Cc2ccccc2)C(=O)c2ccc(O)cc2O)cc1	100 nM
COc1ccccc1-c1ccc(N(Cc2cccnc2)C(=O)c2ccc(O)cc2O)cc1	1000 nM
Cc1cc(S(=O)(=O)N(C)CCO)cnc1-c1ccc(N(Cc2ccsc2)C(=O)c2ccc(O)cc2O)cc1	100 nM
Cc1ncc(C)c(-c2ccc(N(Cc3ccccc3)C(=O)c3cc(Cl)c(O)cc3O)cc2)n1	100 nM
O=C(NC1CC1)c1ccc(N(Cc2ccccc2)C(=O)c2ccc(O)cc2O)cc1	1000 nM
CN(Cc1cccc2cccnc12)C(=O)c1ccc(N(Cc2ccsc2)C(=O)c2ccc(O)cc2O)cc1	100 nM
CN(C)C(=O)c1ccc(N(Cc2cccc(O)c2)C(=O)c2cc(Cl)c(O)cc2O)cc1	100 nM
CN(C)C(=O)c1ccc(N(Cc2cccc(C#N)c2)C(=O)c2cc(Cl)c(O)cc2O)cc1	100 nM
Cc1ccnnc1-c1ccc(N(Cc2cccnc2)C(=O)c2ccc(O)cc2O)cc1	100 nM
Cc1csc2ncnc(-c3ccc(N(Cc4cccnc4)C(=O)c4ccc(O)cc4O)cc3)c12	100 nM
O=C(c1ccc(O)cc1O)N(Cc1ccccc1)c1ccc(-c2nc3ccc(Cl)cc3cc2CO)cc1	1000 nM
Cc1c(Cl)nc(Cl)nc1-c1ccc(N(Cc2ccccc2)C(=O)c2ccc(O)cc2O)cc1	1000 nM
CN(Cc1ccnc2ccccc12)C(=O)c1ccc(N(Cc2ccccc2)C(=O)c2ccc(O)cc2O)cc1	100 nM
O=C(c1ccc(O)cc1O)N(Cc1ccsc1)c1ccc(-c2ncccc2CO)cc1	100 nM
O=C(c1ccc(O)cc1O)N(Cc1ccccc1)c1ccc(-c2ncccc2CO)cc1	1000 nM

From ChEMBL document CHEMBL3727364, “Resorcinol n-aryl amide compounds, for use as pyruvate dehydrogenase kinase inhibitors” (2015)
